In brackets after ≈: the same amount, converted by molar mass. Entries after “also recorded” stand apart in the source; their conditions may differ. Read-outs that look alike come from different tables or passages of the source. Blank lines part the entries; values can stand above or below the compound they belong to.
Experiments:
[1] = Stability of the compound over time; format: physicochemical
ERCC1-XPF complex = biological target: T1, ERCC1-XPF complex (Homo sapiens, UniProt Q92889); assay: Steady-state intrinsic tryptophan fluorescence quenching binding assay
T1 construct: His6; made in house; host or cells: E. coli BL21 (DE3)
T1 sequence (Q92889 1-916): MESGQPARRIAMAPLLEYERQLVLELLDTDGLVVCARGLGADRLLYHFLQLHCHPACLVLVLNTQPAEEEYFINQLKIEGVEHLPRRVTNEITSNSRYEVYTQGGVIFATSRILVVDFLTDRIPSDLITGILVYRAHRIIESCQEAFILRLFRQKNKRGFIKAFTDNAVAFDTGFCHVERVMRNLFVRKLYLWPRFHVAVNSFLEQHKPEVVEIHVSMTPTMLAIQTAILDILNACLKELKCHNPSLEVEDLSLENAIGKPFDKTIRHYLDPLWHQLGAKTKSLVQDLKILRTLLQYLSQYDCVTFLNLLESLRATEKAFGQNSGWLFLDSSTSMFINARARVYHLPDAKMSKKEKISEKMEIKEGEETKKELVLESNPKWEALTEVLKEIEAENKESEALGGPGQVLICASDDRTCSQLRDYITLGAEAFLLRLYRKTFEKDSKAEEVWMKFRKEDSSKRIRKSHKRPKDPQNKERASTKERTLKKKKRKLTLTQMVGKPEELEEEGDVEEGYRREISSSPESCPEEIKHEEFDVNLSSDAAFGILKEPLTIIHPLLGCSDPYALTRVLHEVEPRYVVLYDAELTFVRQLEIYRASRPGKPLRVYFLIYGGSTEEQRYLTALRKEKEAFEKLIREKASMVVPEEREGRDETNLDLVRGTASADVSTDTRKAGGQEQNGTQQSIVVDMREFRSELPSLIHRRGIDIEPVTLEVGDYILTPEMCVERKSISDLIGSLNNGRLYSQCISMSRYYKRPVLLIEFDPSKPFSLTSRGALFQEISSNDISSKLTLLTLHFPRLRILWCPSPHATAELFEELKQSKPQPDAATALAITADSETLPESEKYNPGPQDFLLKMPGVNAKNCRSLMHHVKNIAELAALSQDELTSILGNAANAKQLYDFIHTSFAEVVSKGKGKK
Experimental: Steady-state fluorescence spectra were measured at room temperature on a Perkin-Elmer LS-55 spectrofluorometer (Freemont, Calif.) with 5 nm spectral resolution for excitation and emission using 30-80 nM solution of purified recombinant ERCC1-XPF protein complex. […] In studying the effects of inhibitors on protein fluorescence intensities, additions to protein samples were made from inhibitors stock solutions, keeping the protein dilution below 3%.

ERCC1-XPF = biological target: T2, ERCC1-XPF (Homo sapiens, UniProt Q92889); assay: Microplate fluorescence incision assay of ERCC1-XPF endonuclease activity; format: biochemical; details: for inhibition of ERCC1-XPF endonuclease activity (in words): compounds 10 μM each
T2 construct: His6; made in house; host or cells: E. coli BL21 (DE3)
T2 sequence (Q92889 1-916): T1 sequence (Q92889 1-916)
Source text: This assay has been previously described (29), and utilizes a stem-loop substrate (composed of a 10mer-duplex stem and a 20mer-oligodT single-strand loop), labelled on the 5′-terminus with 6-FAM and 3′ with the quencher dabcyl.
Human ERCC1-XPF wild-type protein was obtained as previously described (29). Basically, the recombinant protein was expressed from a bicistronic plasmid (provided by Dr. Richard Wood, University of Texas MD Anderson Cancer Center, Smithville, Tex.) in the E. coli BL21 (DE3) strain. Since both XPF and ERCC1 contained a polyhistidine (His-6) tag, the proteins extracted from E. coli were incubated with a ProBond Nickel-Chelating Resin (Thermo Fisher Scientific). Protein eluted from the Ni affinity column was subsequently loaded into a Hi-trap heparin column (GE Healthcare). Fractions recovered from the heparin column that contained ERCC1-XPF were dialyzed, concentrated and stored at −80° C. in 10 mM HEPES pH 7.4, 2.5 mM p-mercaptoethanol, 0.01% CHAPS, 0.25 mM EDTA, 50% glycerol and 25 mM NaCl.
A previously described protocol (2,29) was followed.

HCT116 cells [2] = assay: Cellular repair of UV-induced cyclobutane pyrimidine dimers (immunofluorescence); format: cell-based, human; details: 8 J/m^2 UV-C, up to 24 h post-irradiation
Experimental: Protocol of Mirzayans et al. was followed with minor modifications (30). Approximately 1×10^5 HCT116 cells were seeded on each coverslip and allowed to attach overnight. Medium was then removed and cells were treated for one hour with the desired compound. The medium was removed, and cells were exposed to 8 J/m^2 UV-C radiation (G15T8 254 nm lamp, Ushio America Inc, Cypress, Calif.) followed by adding fresh medium containing the compound. Plates were incubated at 37° C. for different periods of time up to 24 hours and fixed in 50:50 methanol/1× phosphate-buffered saline (PBS) solution, followed by replacing the methanol/PBS solution with 100% methanol and incubation in −20° C. After 20 minutes, methanol was removed, and cells were treated with PBS for 5 minutes in room temperature. After fixing, cells were permeabilized in 0.5% Triton/PBS and washed with PBS, denatured in 2 N HCl, and neutralized by twice washing with 0.1 M borate buffer pH 8.5. Cells on cover slips were washed once with PBS followed by blocking with 5% non-fat dry milk/PBS for 30 minutes. Mouse anti-thymine dimer monoclonal antibody (Cat. No. MC-062, Kamiya Biomedical Company, Seattle, Wash.) was applied to the cover slips for one hour in the dark and at room temperature. Cells were then washed with PBS containing 0.1% Tween-20 and incubated with rabbit anti-mouse IgG-Alexafluor antibody (Invitrogen, Carlsbad, Calif.) followed by two washes with PBS/(0.1%)Tween-20. Cells on coverslips were then washed with PBS, rinsed with water, and mounted on slides using DAPI glycerol mounting solution. Slides were kept at 4° C. before fluorescent microscopic evaluation and measurement of fluorescence intensity with MetaXpress Version: 6.2.1.704 software (Molecular Devices, Sunnyvale, Calif.).
To test for inhibition of nucleotide excision repair, we monitored the cellular removal of UVC-induced cyclobutane pyrimidine dimers (CPDs) in HCT116 cells over a 24-hour period using an immunochemical assay.

[3] = ADME screening: solubility; format: physicochemical; details: Table 8
[4] = Microsomal stability in vitro (human liver microsomes); details: for Microsomal stability in vitro CLint (in words): Table 8
[5] = ADME screening: cell permeability and efflux ratio; details: for Cell permeability (Mean recovery %) (in words): Table 8; for efflux ratio: not told
[6] = Hepatocyte stability in vitro; format: in vitro ADME; details: Table 8
[7] = system: five CYP450 tested enzymes; assay: ADME screening: CYP inhibition (five CYP450 enzymes); details: Table 8
[8] = system: five CYP450 enzymes (CYP1A2, CYP2C9, CYP2C19, CYP2D6, CYP3A4-M); assay: as above; details: human
HCT116 cells [9] = assay: Cytotoxicity profile: crystal violet viability assay (and colony forming assay); format: cell-based, human; details: 5 μM, 3 days exposure, crystal violet
Experimental: Crystal violet viability assays were carried out to assess the cellular toxicity of these compounds to HCT116 cells and to choose relatively non-cytotoxic concentrations to be further utilised in sensitizing cells to UV radiation or cyclophosphamide.
The beneficial effect is especially visible at a concentration of 5.0 μM. At higher concentrations, both compounds show an equal cytotoxic effect (FIG. 15).

serum proteins = assay: ADME screening: serum protein binding; format: in vitro ADME; details: Table 8
[10] = system: interaction between ERCC1 and XPF; details: in vitro; cited from earlier work
HCT116 cells [11] = assay: Clonogenic survival assay, UV treatment; format: cell-based, human; details: 254 nm UV 0-10 J/m^2; compound 0.5-4 μM
Experimental: UV treatment: HCT116 cells (100-800 cells depending on the UV dose) were plated in triplicate in 60-mm petri dishes. The cells were incubated overnight at 37° C. in a humidified atmosphere containing 5% CO2 to allow for cell attachment. […] Medium was removed again, and cells were exposed to increasing doses (0-10 J/m^2) of UV-C radiation and then incubated for a further 10 days in the presence of inhibitor at 37° C. in a 5% CO2 atmosphere to allow for colony formation. After this period plates were stained with crystal violet and colonies were counted using a Colcount instrument (Oxford Optronix, Abingdon UK). Finally, plating efficiency and surviving fraction were calculated.

cancer cells = details: cited from earlier work
HCT116 cells [12] = assay: Clonogenic survival assay, cyclophosphamide treatment; format: cell-based, human; details: cyclophosphamide 0-300 μM; compound 1-4 μM
Experimental: Plates were incubated for another 8 days at 37° C. in a 5% CO2 atmosphere for colony formation. After this period plates were stained with crystal violet, colonies were counted, and plating efficiency and surviving fraction were calculated.

SMILES: COc1ccc2nc3cc(Cl)ccc3c(Nc3ccc(O)c(CN4CCN(C5CCCCC5)CC4)c3)c2c1 [Compound A3, 4-((6-Chloro-2-methoxyacridin-9-yl)amino)-2-((4-cyclohexylpiperazin-1-yl)methyl)phenol]
Kd (ERCC1-XPF complex; Table 6, read-out: Kd ± SD): 145 ± 5 nM
IC50 (ERCC1-XPF; Table 6, at least three experiments of Vo versus concentration, 30 minutes incubation, 5% DMSO, read-out: IC50 ± SD): 380 ± 100 nM
inhibition of ERCC1-XPF endonuclease activity (in words) (ERCC1-XPF): marked capacity to inhibit; also recorded: potent inhibitors

SMILES: COc1ccc2nc3cc(Cl)ccc3c(Nc3ccc(O)c(CN4CCN(c5ccc(Cl)c(Cl)c5)CC4)c3)c2c1 [Compound A5, 4-((6-Chloro-2-methoxyacridin-9-yl)amino)-2-((4-(3,4-dichlorophenyl)piperazin-1-yl)methyl)phenol]
quenching of protein fluorescence at 330 nm (ERCC1-XPF complex; 2 μM compound, excitation 295 nm): 3±1%
inhibition of cellular removal of CPDs / thymidine dimers (in words) (HCT116 cells [2]): failed to inhibit the cellular removal of CPDs
inhibition of ERCC1-XPF endonuclease activity (in words) (ERCC1-XPF): very limited inhibition

SMILES: COc1ccc2nc3cc(Cl)ccc3c(Nc3ccc(O)c(CN4CCN(C)CC4)c3)c2c1 [Compound F06, 4-((6-Chloro-2-methoxyacridin-9-yl)amino)-2-((4-methylpiperazin-1-yl)methyl)phenol, reference compound]
Hepatocyte stability in vitro CLint (in words) [6]: (medium clearance)
CLint scaled ([6]; hepatocytes): < 17.8 mL/min/kg
CVP inhibition (5 enzyme) (rating) [7]: Moderate
IC50 [8]: ≥ 1000 nM
Solubility (in words) [3]: (partially soluble)
solubility ([3]; <1.56 means below lower limit of quantilation): 8.13 µM (≈ 3.76 µg/mL)
Kd (ERCC1-XPF complex; Table 6, read-out: Kd ± SD): 140 ± 5 nM
Kd (ERCC1-XPF complex; Table 7, read-out: Kd protein): 140 ± 5 nM
cells survived (HCT116 cells [9]): about 35%
Microsomal stability in vitro CLint (in words) [4]: high
CLint scaled ([4]; human, liver microsomes): 53.7 mL/min/kg
Serum protein binding (% bound) (serum proteins): (99.9) % bound
Serum protein binding (in words) (serum proteins): Strong binding
effect on the interaction between ERCC1 and XPF (in words) [10]: repressed the interaction between ERCC1 and XPF in vitro
LogD (rating) (ADME screening: LogD; Table 8): Good
LogD (remark in the LogD row) (ADME screening: LogD; Table 8): (partially soluble)
logD (ADME screening: LogD; Table 8): 3.86
log D (ADME screening: LogD; pH 7.4): 3.86
Cell permeability (Mean recovery %) (in words) [5]: Low (common)
efflux ratio [5]: > 2
efflux ratio ([5]; efflux ratio): 11.2
IC50 (ERCC1-XPF): 1860 nM
IC50 (ERCC1-XPF; Table 7, at least three experiments of Vo versus concentration): 1860 ± 250 nM
inhibition of ERCC1-XPF endonuclease activity (in words) (ERCC1-XPF): marked capacity to inhibit
IC50 (ERCC1-XPF; read-out: IC50 of ERCC1-XPF endonuclease activity, full-length ERCC1-XPF, 30 minutes incubation, 5% DMSO): 1860 ± 250 nM
IC50 (ERCC1-XPF; read-out: IC50 ± SD, Table 6, at least three experiments of Vo versus concentration, 30 minutes incubation, 5% DMSO): 1860 ± 250 nM
sensitisation to UV radiation, clonogenic survival (in words) (HCT116 cells [11]): modest sensitisation capacity
sensitization of cancer cells to MMC and cisplatin (in words) (cancer cells): sensitized cancer cells to MMC and cisplatin

SMILES: CN1CCN(Cc2cc(N)ccc2O)CC1 [Gen B4]
inhibition of ERCC1-XPF endonuclease activity (in words) (ERCC1-XPF): complete loss of inhibition

SMILES: COc1ccc2nc3cc(Cl)ccc3c(Nc3ccc(O)c(CN4CCN(CCNc5ccccc5)CC4)c3)c2c1 [Gen C-5, 4-((6-Chloro-2-methoxyacridin-9-yl)amino)-2-((4-(2-(phenylamino)ethyl)piperazin-1-yl)methyl)-phenol]
sensitisation to cyclophosphamide, clonogenic survival (in words) (HCT116 cells [12]): no significant sensitisation effect

More lines, main results first:

stability over time (in words) [1]: instability over time
SMILES: COc1ccc2nc3cc(Cl)ccc3c(Nc3ccc(O)c(CN4CCN(Cc5cccc(C)c5)CC4)c3)c2c1 [Compound A2, 4-((6-Chloro-2-methoxyacridin-9-yl)amino)-2-((4-(3-methylbenzyl)piperazin-1-yl)methyl)phenol]

Solubility (in words) [3]: Highly soluble
Kd (ERCC1-XPF complex; Table 7, read-out: Kd protein): 150 ± 10 nM
Microsomal stability in vitro CLint (in words) [4]: Moderate
LogD (rating) (ADME screening: LogD; Table 8): Good
logD (ADME screening: LogD; pH 7.4): 2.31
Cell permeability (Mean recovery %) (in words) [5]: Low (common)
IC50 (ERCC1-XPF; Table 7, at least three experiments of Vo versus concentration, read-out: IC50): 321 ± 22 nM
SMILES: COc1ccc2nc3cc(Cl)ccc3c(Nc3cc(CN4CCCC4)c(O)c(CN4CCCC4)c3)c2n1 [Compound D4, pyronaridine, reference compound]
inhibition of ERCC1-XPF endonuclease activity (in words) (ERCC1-XPF): potent inhibitor; also recorded: strong inhibitory effect

inhibition of ERCC1-XPF endonuclease activity (in words) (ERCC1-XPF): marked capacity to inhibit
SMILES: CN1CCN(Cc2cc(Nc3c4ccc(Cl)cc4nc4ccc(O)cc34)ccc2O)CC1 [Gen B5]

Source: US20220306603A1, “TARGETING DNA REPAIR IN TUMOR CELLS VIA INHIBITION OF ERCC1-XPF” (The Governors of the University of Alberta, priority 2019, published 2022)
